From ChEMBL document CHEMBL4507265 (2021)

How the values were obtained:
[1] = target: Serine/threonine-protein kinase RIO1 (Homo sapiens) (UniProt Q9BRS2); conditions: Compound concentration 1000.0 nM
[2] = target: Mast/stem cell growth factor receptor Kit (Homo sapiens) (UniProt P10721); conditions: Compound concentration 1000.0 nM
[3] = target: Ephrin type-A receptor 3 (Homo sapiens) (UniProt P29320); conditions: Compound concentration 1000.0 nM
[4] = target: Rhodopsin kinase GRK7 (Homo sapiens) (UniProt Q8WTQ7); conditions: Compound concentration 1000.0 nM
[5] = target: Mitogen-activated protein kinase kinase kinase 15 (Homo sapiens) (UniProt Q6ZN16); conditions: Compound concentration 1000.0 nM
[6] = target: Serine/threonine-protein kinase TAO2 (Homo sapiens) (UniProt Q9UL54); conditions: Compound concentration 1000.0 nM
[7] = tested on: Phosphatidylinositol 4,5-bisphosphate 3-kinase catalytic subunit alpha isoform (Homo sapiens), P42336 [Q546K]; conditions: Compound concentration 1000.0 nM
[8] = target: 3-phosphoinositide-dependent protein kinase 1 (Homo sapiens) (UniProt O15530); conditions: Compound concentration 1000.0 nM
[9] = tested on: Phosphatidylinositol 4,5-bisphosphate 3-kinase catalytic subunit alpha isoform (Homo sapiens), P42336 [M1043I]; conditions: Compound concentration 1000.0 nM
[10] = tested on: Tyrosine-protein kinase ABL1 (Homo sapiens), P00519 [F317I]; conditions: Compound concentration 1000.0 nM
[11] = target: Activin receptor type-1B (Homo sapiens) (UniProt P36896); conditions: Compound concentration 1000.0 nM
[12] = target: Serine/threonine-protein kinase VRK2 (Homo sapiens) (UniProt Q86Y07); conditions: Compound concentration 1000.0 nM
[13] = tested on: Epidermal growth factor receptor (Homo sapiens), P00533 [UNDEFINED MUTATION]; conditions: Compound concentration 1000.0 nM
[14] = target: Protein kinase C eta type (Homo sapiens) (UniProt P24723); conditions: Compound concentration 1000.0 nM
[15] = target: Tyrosine-protein kinase Fyn (Homo sapiens) (UniProt P06241); conditions: Compound concentration 1000.0 nM
[16] = target: Serine/threonine-protein kinase MRCK gamma (Homo sapiens) (UniProt Q6DT37); conditions: Compound concentration 1000.0 nM
[17] = target: MAP kinase-interacting serine/threonine-protein kinase 1 (Homo sapiens) (UniProt Q9BUB5); conditions: Compound concentration 1000.0 nM
[18] = target: Aurora kinase A (Homo sapiens) (UniProt O14965); conditions: Compound concentration 1000.0 nM
[19] = target: G protein-coupled receptor kinase 4 (Homo sapiens) (UniProt P32298); conditions: Compound concentration 1000.0 nM
[20] = target: Cyclin-dependent kinase 14 (Homo sapiens) (UniProt O94921); conditions: Compound concentration 1000.0 nM
[21] = target: Uncharacterized serine/threonine-protein kinase SBK3 (Homo sapiens) (UniProt P0C264); conditions: Compound concentration 1000.0 nM
[22] = target: Serine/threonine-protein kinase Chk2 (Homo sapiens) (UniProt O96017); conditions: Compound concentration 1000.0 nM
[23] = target: Histamine H4 receptor (Homo sapiens) (UniProt Q9H3N8); conditions: Compound concentration 10.0 uM
[24] = target: Serine/threonine-protein kinase NIM1 (Homo sapiens) (UniProt Q8IY84); conditions: Compound concentration 1000.0 nM
[25] = target: Casein kinase I isoform alpha-like (Homo sapiens) (UniProt Q8N752); conditions: Compound concentration 1000.0 nM
[26] = target: Ephrin type-B receptor 6 (Homo sapiens) (UniProt O15197); conditions: Compound concentration 1000.0 nM
[27] = target: Ribosomal protein S6 kinase alpha-2 (Homo sapiens) (UniProt Q15349); conditions: Compound concentration 1000.0 nM
[28] = target: Cyclin-dependent kinase 2 (Homo sapiens) (UniProt P24941); conditions: Compound concentration 1000.0 nM
[29] = target: Mitogen-activated protein kinase kinase kinase 14 (Homo sapiens) (UniProt Q99558); conditions: Compound concentration 1000.0 nM
[30] = target: Tyrosine-protein kinase TXK (Homo sapiens) (UniProt P42681); conditions: Compound concentration 1000.0 nM
[31] = target: Myosin-IIIb (Homo sapiens) (UniProt Q8WXR4); conditions: Compound concentration 1000.0 nM
[32] = target: NUAK family SNF1-like kinase 1 (Homo sapiens) (UniProt O60285); conditions: Compound concentration 1000.0 nM
[33] = target: 5-hydroxytryptamine receptor 5A (Homo sapiens) (UniProt P47898); conditions: Compound concentration 10.0 uM
[34] = target: cAMP-dependent protein kinase catalytic subunit beta (Homo sapiens) (UniProt P22694); conditions: Compound concentration 1000.0 nM
[35] = target: Cyclin-dependent kinase-like 5 (Homo sapiens) (UniProt O76039); conditions: Compound concentration 1000.0 nM
[36] = target: Receptor-type tyrosine-protein kinase FLT3 (Homo sapiens) (UniProt P36888); conditions: Compound concentration 1000.0 nM
[37] = target: Non-receptor tyrosine-protein kinase TYK2 (Homo sapiens) (UniProt P29597); conditions: Compound concentration 1000.0 nM
[38] = tested on: Proto-oncogene tyrosine-protein kinase receptor Ret (Homo sapiens), P07949 [M918T]; conditions: Compound concentration 1000.0 nM
[39] = tested on: Phosphatidylinositol 4,5-bisphosphate 3-kinase catalytic subunit alpha isoform (Homo sapiens), P42336 [I800L]; conditions: Compound concentration 1000.0 nM
[40] = target: Casein kinase I isoform delta (Homo sapiens) (UniProt P48730); conditions: Compound concentration 1000.0 nM
[41] = target: Histamine H1 receptor (Homo sapiens) (UniProt P35367); conditions: Compound concentration 10.0 uM
[42] = target: cGMP-dependent protein kinase 2 (Homo sapiens) (UniProt Q13237); conditions: Compound concentration 1000.0 nM
[43] = target: Serine/threonine-protein kinase haspin (Homo sapiens) (UniProt Q8TF76); conditions: Compound concentration 1000.0 nM
[44] = target: Mitogen-activated protein kinase 1 (Homo sapiens) (UniProt P28482); conditions: Compound concentration 1000.0 nM
[45] = target: Dual specificity protein kinase CLK3 (Homo sapiens) (UniProt P49761); conditions: Compound concentration 1000.0 nM

Chain of Serine/threonine-protein kinase MRCK gamma (Homo sapiens) (Q6DT37 whole entry): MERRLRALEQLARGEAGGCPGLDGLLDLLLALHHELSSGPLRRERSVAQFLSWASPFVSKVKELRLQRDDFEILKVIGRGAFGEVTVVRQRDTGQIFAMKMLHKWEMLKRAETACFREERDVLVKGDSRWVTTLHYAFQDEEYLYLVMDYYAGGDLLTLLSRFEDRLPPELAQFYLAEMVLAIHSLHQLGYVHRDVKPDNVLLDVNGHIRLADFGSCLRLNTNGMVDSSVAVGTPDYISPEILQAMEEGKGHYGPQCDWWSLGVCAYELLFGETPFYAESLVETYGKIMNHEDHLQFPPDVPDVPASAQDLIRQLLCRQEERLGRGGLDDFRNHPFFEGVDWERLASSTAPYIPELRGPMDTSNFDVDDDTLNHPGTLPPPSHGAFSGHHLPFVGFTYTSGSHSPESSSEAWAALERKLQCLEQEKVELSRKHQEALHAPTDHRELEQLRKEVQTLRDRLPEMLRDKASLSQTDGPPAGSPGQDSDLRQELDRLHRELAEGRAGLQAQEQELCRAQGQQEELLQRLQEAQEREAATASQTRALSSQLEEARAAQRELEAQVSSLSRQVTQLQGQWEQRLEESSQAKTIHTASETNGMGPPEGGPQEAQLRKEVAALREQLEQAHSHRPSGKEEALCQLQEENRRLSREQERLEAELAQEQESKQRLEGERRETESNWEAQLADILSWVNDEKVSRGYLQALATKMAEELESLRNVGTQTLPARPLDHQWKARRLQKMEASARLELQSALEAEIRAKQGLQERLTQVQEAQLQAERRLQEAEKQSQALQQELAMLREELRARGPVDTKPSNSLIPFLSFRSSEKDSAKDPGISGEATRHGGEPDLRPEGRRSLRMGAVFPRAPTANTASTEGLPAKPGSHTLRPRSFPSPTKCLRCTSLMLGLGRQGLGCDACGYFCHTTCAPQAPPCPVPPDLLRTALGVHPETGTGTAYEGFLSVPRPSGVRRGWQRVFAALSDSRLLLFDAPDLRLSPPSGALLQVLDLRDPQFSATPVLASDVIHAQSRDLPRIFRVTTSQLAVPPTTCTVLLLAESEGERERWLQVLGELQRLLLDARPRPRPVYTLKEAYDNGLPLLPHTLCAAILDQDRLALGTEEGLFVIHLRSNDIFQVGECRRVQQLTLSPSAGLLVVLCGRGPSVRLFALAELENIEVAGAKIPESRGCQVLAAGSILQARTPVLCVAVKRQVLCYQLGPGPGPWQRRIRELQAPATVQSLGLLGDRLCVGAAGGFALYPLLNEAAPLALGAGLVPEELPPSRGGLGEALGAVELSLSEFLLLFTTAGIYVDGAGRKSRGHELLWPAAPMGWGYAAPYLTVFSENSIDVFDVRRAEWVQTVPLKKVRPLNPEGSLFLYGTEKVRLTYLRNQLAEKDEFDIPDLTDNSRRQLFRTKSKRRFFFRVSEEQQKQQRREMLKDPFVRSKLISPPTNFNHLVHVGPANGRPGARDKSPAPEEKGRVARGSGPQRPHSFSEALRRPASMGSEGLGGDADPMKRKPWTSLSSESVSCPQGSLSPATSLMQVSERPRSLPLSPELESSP
Chain of Mast/stem cell growth factor receptor Kit (Homo sapiens) (P10721 whole entry): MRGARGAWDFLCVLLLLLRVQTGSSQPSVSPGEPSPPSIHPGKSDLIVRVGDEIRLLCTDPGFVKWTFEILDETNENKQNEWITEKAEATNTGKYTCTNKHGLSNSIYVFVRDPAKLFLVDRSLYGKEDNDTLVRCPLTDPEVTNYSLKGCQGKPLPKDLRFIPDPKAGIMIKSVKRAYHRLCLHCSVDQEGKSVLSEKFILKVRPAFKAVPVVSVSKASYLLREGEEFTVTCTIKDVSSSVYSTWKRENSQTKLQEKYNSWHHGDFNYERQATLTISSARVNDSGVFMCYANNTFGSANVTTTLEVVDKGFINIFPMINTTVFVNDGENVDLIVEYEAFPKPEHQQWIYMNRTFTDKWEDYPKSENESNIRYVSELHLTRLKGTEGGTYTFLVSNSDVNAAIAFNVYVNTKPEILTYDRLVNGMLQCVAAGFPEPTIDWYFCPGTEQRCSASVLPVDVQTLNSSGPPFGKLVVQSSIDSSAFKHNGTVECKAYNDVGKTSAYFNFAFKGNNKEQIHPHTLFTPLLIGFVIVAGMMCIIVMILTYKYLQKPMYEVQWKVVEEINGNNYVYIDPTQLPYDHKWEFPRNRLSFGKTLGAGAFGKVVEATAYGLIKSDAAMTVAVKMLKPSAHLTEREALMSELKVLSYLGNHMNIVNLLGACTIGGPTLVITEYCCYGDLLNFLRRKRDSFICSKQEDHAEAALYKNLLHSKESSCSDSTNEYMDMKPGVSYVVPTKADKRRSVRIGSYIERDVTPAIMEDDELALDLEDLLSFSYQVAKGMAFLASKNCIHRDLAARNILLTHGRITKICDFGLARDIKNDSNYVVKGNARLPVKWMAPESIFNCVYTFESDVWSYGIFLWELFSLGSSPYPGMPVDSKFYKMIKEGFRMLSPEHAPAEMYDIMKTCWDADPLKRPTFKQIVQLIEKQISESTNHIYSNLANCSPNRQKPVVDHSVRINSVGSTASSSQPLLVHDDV
Chain of Mitogen-activated protein kinase kinase kinase 15 (Homo sapiens) (Q6ZN16 whole entry): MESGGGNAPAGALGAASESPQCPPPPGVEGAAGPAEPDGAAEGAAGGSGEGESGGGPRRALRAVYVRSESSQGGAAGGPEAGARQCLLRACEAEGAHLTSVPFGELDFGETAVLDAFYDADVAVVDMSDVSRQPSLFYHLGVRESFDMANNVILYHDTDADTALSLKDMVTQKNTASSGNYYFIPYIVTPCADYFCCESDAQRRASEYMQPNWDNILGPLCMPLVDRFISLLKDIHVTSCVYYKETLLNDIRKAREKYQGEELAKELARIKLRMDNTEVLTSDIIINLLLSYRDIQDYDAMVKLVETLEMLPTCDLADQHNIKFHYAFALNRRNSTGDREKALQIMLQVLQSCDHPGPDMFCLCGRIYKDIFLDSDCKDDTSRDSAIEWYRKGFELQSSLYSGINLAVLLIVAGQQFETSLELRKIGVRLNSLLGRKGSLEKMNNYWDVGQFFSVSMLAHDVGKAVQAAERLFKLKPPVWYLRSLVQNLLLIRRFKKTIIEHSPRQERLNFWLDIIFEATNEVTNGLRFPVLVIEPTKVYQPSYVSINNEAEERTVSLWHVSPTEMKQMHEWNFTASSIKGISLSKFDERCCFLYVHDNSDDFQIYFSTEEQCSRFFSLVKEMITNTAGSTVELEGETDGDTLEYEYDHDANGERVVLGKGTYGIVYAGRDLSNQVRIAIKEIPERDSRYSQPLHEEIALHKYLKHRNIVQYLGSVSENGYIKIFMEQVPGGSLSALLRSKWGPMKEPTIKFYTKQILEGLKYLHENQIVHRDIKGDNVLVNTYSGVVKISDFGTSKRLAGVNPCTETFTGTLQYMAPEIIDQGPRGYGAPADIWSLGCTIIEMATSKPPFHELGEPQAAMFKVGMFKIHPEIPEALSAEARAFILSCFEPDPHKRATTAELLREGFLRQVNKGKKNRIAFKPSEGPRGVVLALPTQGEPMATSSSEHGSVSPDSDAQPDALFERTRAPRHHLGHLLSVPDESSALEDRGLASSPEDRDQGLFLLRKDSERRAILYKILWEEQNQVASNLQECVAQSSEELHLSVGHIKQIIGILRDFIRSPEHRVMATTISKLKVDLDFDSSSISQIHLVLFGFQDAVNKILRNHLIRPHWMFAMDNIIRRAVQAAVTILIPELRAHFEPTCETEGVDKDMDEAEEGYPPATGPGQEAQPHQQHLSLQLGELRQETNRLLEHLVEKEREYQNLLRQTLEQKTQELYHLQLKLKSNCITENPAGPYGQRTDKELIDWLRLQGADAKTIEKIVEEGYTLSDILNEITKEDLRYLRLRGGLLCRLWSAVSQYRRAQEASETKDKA
Chain of Mitogen-activated protein kinase 1 (Homo sapiens) (P28482 whole entry): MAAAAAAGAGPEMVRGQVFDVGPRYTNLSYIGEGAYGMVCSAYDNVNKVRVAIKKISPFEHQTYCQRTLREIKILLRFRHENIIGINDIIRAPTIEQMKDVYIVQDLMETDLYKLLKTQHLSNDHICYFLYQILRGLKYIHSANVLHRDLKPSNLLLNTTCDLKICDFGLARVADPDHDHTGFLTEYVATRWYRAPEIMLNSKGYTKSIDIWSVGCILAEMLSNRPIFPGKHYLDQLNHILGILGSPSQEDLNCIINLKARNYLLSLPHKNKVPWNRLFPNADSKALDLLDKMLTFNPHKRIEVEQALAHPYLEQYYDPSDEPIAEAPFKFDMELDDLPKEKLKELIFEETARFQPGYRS
Chain of Ribosomal protein S6 kinase alpha-2 (Homo sapiens) (Q15349 whole entry): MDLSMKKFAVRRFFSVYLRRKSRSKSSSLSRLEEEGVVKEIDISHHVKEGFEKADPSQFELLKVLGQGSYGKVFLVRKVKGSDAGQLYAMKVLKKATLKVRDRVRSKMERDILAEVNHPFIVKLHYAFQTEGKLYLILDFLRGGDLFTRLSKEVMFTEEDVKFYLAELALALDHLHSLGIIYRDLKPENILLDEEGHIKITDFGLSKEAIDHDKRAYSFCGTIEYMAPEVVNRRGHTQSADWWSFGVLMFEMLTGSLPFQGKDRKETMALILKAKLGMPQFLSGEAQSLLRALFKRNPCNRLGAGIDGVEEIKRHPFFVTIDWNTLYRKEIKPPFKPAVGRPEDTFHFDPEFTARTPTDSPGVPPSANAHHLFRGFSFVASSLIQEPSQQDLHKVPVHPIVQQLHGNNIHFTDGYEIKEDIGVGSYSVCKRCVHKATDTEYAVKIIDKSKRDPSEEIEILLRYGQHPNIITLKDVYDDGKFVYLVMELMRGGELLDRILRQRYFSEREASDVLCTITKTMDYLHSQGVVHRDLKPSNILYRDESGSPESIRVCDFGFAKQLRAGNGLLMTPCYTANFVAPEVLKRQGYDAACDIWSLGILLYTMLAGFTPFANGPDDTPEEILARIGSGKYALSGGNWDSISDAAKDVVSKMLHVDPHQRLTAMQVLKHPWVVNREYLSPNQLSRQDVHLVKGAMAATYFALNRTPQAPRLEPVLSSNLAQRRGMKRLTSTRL

## NS(=O)(=O)c1cc(NC(=O)C2(c3ccccc3Cl)CC2)ccc1Oc1cccc(Cl)c1 [BAY-207]
[1]
  residual activity: 84%
[2]
  residual activity: 79%
[3]
  residual activity: 100%
[4]
  residual activity: 100%
[5]
  residual activity: 86%
[6]
  residual activity: 82%
[7]
  residual activity: 84%
[8]
  residual activity: 85%
[9]
  residual activity: 98%
[10]
  residual activity: 90%
[11]
  residual activity: 89%
[12]
  residual activity: 100%
[13]
  residual activity: 85%
[14]
  residual activity: 100%
[15]
  residual activity: 100%
[16]
  residual activity: 82%
[17]
  residual activity: 99%
[18]
  residual activity: 100%
[19]
  residual activity: 100%
[20]
  residual activity: 63%
[21]
  residual activity: 74%
[22]
  residual activity: 100%
[23]
  inhibition: 0.09%
[24]
  residual activity: 86%
[25]
  residual activity: 84%
[26]
  residual activity: 81%
[27]
  residual activity: 100%
[28]
  residual activity: 82%
[29]
  residual activity: 100%
[30]
  residual activity: 90%
[31]
  residual activity: 29%
[32]
  residual activity: 95%
[33]
  inhibition: 5.57%
[34]
  residual activity: 88%
[35]
  residual activity: 95%
[36]
  residual activity: 100%
[37]
  residual activity: 100%
[38]
  residual activity: 71%
[39]
  residual activity: 100%
[40]
  residual activity: 83%
[41]
  inhibition: 17.9%
[42]
  residual activity: 100%
[43]
  residual activity: 96%
[44]
  residual activity: 75%
[45]
  residual activity: 72%

## NS(=O)(=O)c1cc(NC(=O)Cc2ccccc2)ccc1Oc1cccc(Cl)c1 [BAY-1797]
[1]
  residual activity: 93%
[2]
  residual activity: 87%
[3]
  residual activity: 78%
[4]
  residual activity: 77%
[5]
  residual activity: 100%
[6]
  residual activity: 76%
[7]
  residual activity: 92%
[8]
  residual activity: 95%
[9]
  residual activity: 93%
[10]
  residual activity: 72%
[11]
  residual activity: 98%
[12]
  residual activity: 100%
[13]
  residual activity: 76%
[14]
  residual activity: 93%
[15]
  residual activity: 69%
[16]
  residual activity: 100%
[17]
  residual activity: 79%
[18]
  residual activity: 69%
[19]
  residual activity: 100%
[20]
  residual activity: 95%
[21]
  residual activity: 100%
[22]
  residual activity: 81%
[23]
  inhibition: -3.13%
[24]
  residual activity: 62%
[25]
  residual activity: 74%
[26]
  residual activity: 92%
[27]
  residual activity: 89%
[28]
  residual activity: 100%
[29]
  residual activity: 67%
[30]
  residual activity: 92%
[31]
  residual activity: 100%
[32]
  residual activity: 100%
[33]
  inhibition: 1.47%
[34]
  residual activity: 100%
[35]
  residual activity: 83%
[36]
  residual activity: 100%
[37]
  residual activity: 90%
[38]
  residual activity: 83%
[39]
  residual activity: 82%
[40]
  residual activity: 93%
[41]
  inhibition: 15.7%
[42]
  residual activity: 86%
[43]
  residual activity: 100%
[44]
  residual activity: 71%
[45]
  residual activity: 83%
